Holding throughout (type): cell-based, human
One experiment has as its system H358 cells. The experiment in a line: Cell-Titer Glo cell viability / growth inhibition. Particulars: H358 NSCLC cell line. Here is the method: (§1) The NSCLC lines with IGF-1R, H292, H358, H322, H441, A549, Calu6, H460, H1703 and SW1573 were cultured in the appropriate ATCC recommended supplemented media. Cell extracts were prepared by detergent lysis ((50 mM Tris-HCl, pH8, 150 mM NaCl, 1% NP-40, 0.5% NaDeoxycholate, 0.1% SDS) containing protease and phosphatase inhibitors. The soluble protein concentration was determined by micro-BSA assay (Pierce, Rockford Ill.).
(§2) IGF-1R inhibitor Compound 66 (i.e. 3-(3-Azetidin-1-ylmethyl-cyclobutyl)-1-(2-phenyl-quinolin-7-yl)-imidazo[1,5-a]pyrazin-8-ylamine; see structure below) stock concentration was 10 mM in 100% DMSO (dimethyl sulfoxide). Serial dilutions (1:3 or 1:4) were used to establish the 50% inhibitory dose of IGF-1R inhibitor. Before dosing, inhibitor was diluted in 100% DMSO, and then added to the cells at desired final concentrations in duplicates. The final DMSO concentration was between 0.3-0.5%. Compound 66 was synthesized by the methods described in published International patent application number WO 2005/097800 A1.
(§3) For measuring cell viability, Cell-Titer Glo assay was used, which is available as a kit from Promega. The basis of the assay is a luminescent quantitation of ATP present in a cell culture plate well. In essence, the greater the number of viable cells in the well, the greater the level of ATP present. The assay utilizes a substrate that binds ATP to produce a luminescent signal, which can be read on a luminometer. Unless otherwise noted, the manufacturer's instructions were followed exactly. Briefly, on Day 1, cells were plated in 120 μl of 10% serum-containing growth media at a density of 4000 cells/well in a white polystyrene 96 well assay plate. On day 2, cells were treated with 15 μl of 10× concentration of the IGF-1R inhibitor (e.g. Compound 66, PQIP) or DMSO alone for a final well volume of […]. After 72 h incubation with the inhibitor, the cells were assayed. Results were calculated as a fraction of the DMSO controlled cells.

The next experiment has as its system A549 cells. The experiment in a line: Cell-Titer Glo cell viability / growth inhibition. To be noted: A549 NSCLC cell line. As for the experimental part: as §1, §2, §3
The subject of a further experiment is H460 cells. The experiment in a line: Cell-Titer Glo cell viability / growth inhibition. To be noted: H460 NSCLC cell line. Here is the method:
as §1, §2, §3

For a further experiment, the system named is H292 cells. The experiment in a line: Cell-Titer Glo cell viability / growth inhibition. To be noted: H292 NSCLC cell line. Here is the method:
as §1, §2, §3

The next experiment deals with H441 cells. The experiment in a line: Cell-Titer Glo cell viability / growth inhibition. Particulars: H441 NSCLC cell line. Here is the method: as §1, §2, §3
Another experiment has as its system SW1573 cells. Briefly: Cell-Titer Glo cell viability / growth inhibition. To be noted: SW1573 NSCLC cell line. As for the experimental part: as §1, §2, §3
The test system of experiment [1] is panel comprised of 28 tumor cell lines (colorectal, breast, pancreatic, NSCLC, head and neck). Briefly: Cell-Titer Glo growth inhibition, tumor cell line panel. As for the experimental part:
The effect of 3 μM PQIP on cell growth for a panel of 26 tumor cell lines is shown. The EMT status for the cell lines is indicated, and those tumor cell lines which harbor a known activating mutation in PI3K are marked by a *. EMT status is defined here according to the transcriptional activity of CDH1, the gene encoding E-Cadherin, indicated by either the methylation status of the CDH1 promoter or the presence of CDH1 gene transcriptional repressor proteins (e.g. Snail, Zeb1). Methylation or high levels of transcriptional repressors is associated with silencing of CDH1, and is thus an indicator of a mesenchymal cell. Cell growth was measured using Cell Titer Glo (Promega), and measurements were taken 72 hours after dosing. Data are expressed as % of maximal tumor growth inhibition and are representative of three or more independent experiments. […]
For measuring cell viability, Cell-Titer Glo assay was used, which is available as a kit from Promega. The basis of the assay is a luminescent quantitation of ATP present in a cell culture plate well. […] The assay utilizes a substrate that binds ATP to produce a luminescent signal, which can be read on a luminometer. […] Results were calculated as a fraction of the DMSO controlled cells.

Regarding `Nc1nccn2c1c(-c1ccc3ccc(-c4ccccc4)nc3c1)nc2[C@H]1C[C@@H](CN2CCC2)C1` [Compound 66, 3-(3-Azetidin-1-ylmethyl-cyclobutyl)-1-(2-phenyl-quinolin-7-yl)-imidazo[1,5-a]pyrazin-8-ylamine], the “sensitivity to Compound 66-mediated growth inhibition” value is “sensitive” with H358 cells; “intermediate sensitivity” in the experiment on A549 cells; “relatively insensitive” in the experiment with H460 cells; “sensitive” in the experiment on H292 cells; “sensitive” in the experiment on H441 cells; “relatively insensitive” with SW1573 cells.

In the case of `CN1CCN([C@H]2C[C@@H](c3nc(-c4ccc5ccc(-c6ccccc6)nc5c4)c4c(N)nccn43)C2)CC1` [PQIP, cis-3-[3-(4-Methyl-piperazin-1-yl)-cyclobutyl]1-(2-phenyl-quinolin-7-yl)-imidazo[1,5-a]pyrazin-8-ylamine], in experiment [1] (Homo sapiens, 3 μM PQIP, any mesenchymal tumor cell line in the panel), the inhibition (usually the share of the control response that was lost under treatment) at 3 µM was at most 50%. In addition, the “dose dependence of growth inhibition” value in experiment [1] (varying concentrations of PQIP, all cell lines (data not shown)) is recorded as “dose-dependent”.

(Values after patent publication US8048621B2, “Biological markers predictive of anti-cancer response to insulin-like growth factor-1 receptor kinase inhibitors” (OSI Pharmaceuticals, LLC, priority 2007, dated 2011).)
